The values that follow come from ChEMBL document CHEMBL3045380, “Effects of a prenyl-baicalein derivative on ER (+) MCF-7 and ER () MDA-MB-231 breast tumor cell lines” (2012).

Each structure is given as a SMILES string. Active and inactive are the calls of the source. No cut-off for these calls is given here.

In assay [1] the test system is MCF-7. The assay is described as follows: Antagonist activity at estrogen receptor in Homo sapiens (human) MCF-7 cells assessed as potentiation of fluvestrant-induced reduction in [3H]thymidine incorporation at 3.13 to 6.25 uM aftestrogen receptor 72 hr by liquid scintillation counting. The assay is classed as cell-based.
Assay [2] relates to MCF7. The assay is described as follows: Inhibition of ER in Homo sapiens (human) MCF-7 cells grown in steroid free RPMI medium assessed as cell death at 3.13 to 100 uM after 72 hr by SRB assay. The assay is classed as functional, cell-based. (In SRB staining, fixed cells bind dye roughly in proportion to their protein.)
Assay [3] concerns MDA-MB-231. The assay is described as follows: Cytotoxicity against Homo sapiens (human) ER-deficient MDA-MB-231 cells grown in RPMI medium at 3.13 to 100 uM after 48 hr by SRB assay. The assay is classed as functional, cell-based.
In assay [4] the test system is MDA-MB-231. Kind of assay: Cytotoxicity against Homo sapiens (human) ER-deficient MDA-MB-231 cells grown in steroid free RPMI medium at 3.13 to 100 uM after 72 hr by SRB assay. It is filed as functional, cell-based.
Assay [5] concerns MDA-MB-231. The assay is described as follows: Cytotoxicity against Homo sapiens (human) ER-deficient MDA-MB-231 cells after 48 hr by SRB assay. It is filed as functional.
Assay [6] relates to MCF-7. Kind of assay: Inhibition of estrogen receptor in Homo sapiens (human) MCF-7 cells grown in RPMI medium assessed as cell death at 3.13 to 100 uM aftestrogen receptor 48 hr by SRB assay. It is filed as cell-based.
For assay [7], the system named is MCF7. The assay is described as follows: Cytotoxicity against Homo sapiens (human) MCF-7 cells expressing ER after 48 hr by SRB assay. It is filed as functional.
In assay [8] the test system is MDA-MB-231. The assay is described as follows: Antiproliferative activity against Homo sapiens (human) ER-deficient MDA-MB-231 cells grown in steroid free RPMI medium assessed as inhibition of [3H]thymidine incorporation at 3.13 to 100 uM after 72 hr by liquid scintillation counting. The assay is classed as functional, cell-based. Background: Dividing cells build labelled thymidine or BrdU into new DNA.

Assay [9] relates to MCF-7. Kind of assay: Antagonist activity at estrogen receptor in Homo sapiens (human) MCF-7 cells assessed as potentiation of 4-hydroxytamoxifen-induced reduction in [3H]thymidine incorporation aftestrogen receptor 72 hr by liquid scintillation counting. The assay is classed as cell-based.
The test system of assay [10] is MCF-7. Kind of assay: Antagonist activity at estrogen receptor in Homo sapiens (human) MCF-7 cells grown in stestrogen receptoroid free RPMI medium assessed as inhibition of [3H]thymidine incorporation at 3.13 to 100 uM aftestrogen receptor 72 hr by liquid scintillation counting. It is filed as cell-based.
For assay [11], the system named is MCF-7. Kind of assay: Antagonist activity at estrogen receptor in Homo sapiens (human) MCF-7 cells assessed as inhibition of 17betaestradiol-induced [3H]thymidine incorporation at 0.1 to 0.78 uM aftestrogen receptor 72 hr by liquid scintillation counting. The assay is classed as cell-based.
Assay [12] has as its system MCF-7. The assay is described as follows: Agonist activity at estrogen receptor in Homo sapiens (human) MCF-7 cells grown in stestrogen receptoroid free RPMI medium assessed as incorporation of [3H]thymidine at 0.1 to 0.2 uM aftestrogen receptor 72 hr by liquid scintillation counting. It is filed as cell-based.

For orientation: GI50 means the concentration at which growth is held to half of that of the control. Take `CC(C)=CCOc1cc2oc(-c3ccccc3)cc(=O)c2c(O)c1O`: the outcome in the assay with MCF-7 [1], in the assay with MDA-MB-231 [3], with MDA-MB-231 [4], with MDA-MB-231 [8] and in the assay on MCF-7 [12] was Active. The inhibition entry in the assay on MCF7 [2], with MCF-7 [10] and with MCF-7 [11] was “Active” each time. The Activity result with MDA-MB-231 [5], in the assay on MCF7 [7] and with MCF-7 [9] was “Dose-dependent effect” throughout. The GI50 turned out to be 29.7 µM in the assay with MDA-MB-231 [5] (MDA-MB-231, 48 h) and 11.2 µM with MCF7 [7] (MCF7, 48 h). The inhibition entry in the assay with MCF-7 [6] was “inactive”.
